From patent publication US8980902B2, “Poly (ADP-ribose) polymerase (PARP) inhibitors” (Takeda Pharmaceutical Company Limited, priority 2009, dated 2015)

Tests used:
Jurkat cell line = assay: PARP cellular chemopotentiation assay (MTS viability, with and without Temozolomide); assay type: cell-based; settings: Chemopotentiation factor: ratio of EC50 for cell viability without and with 100 μM TMZ, Jurkat cells, 96 hours of treatment
Protocol: Potentiation Factor (PF50) Determination from PARP Cellular Chemopotentiation Assay
Jurkat cell line was maintained according to the supplier (American Type Culture Collection (Rockville, Md.)). Cells were seeded in 96-well tissue culture microplates at 10,000 cells per well and cultured for 24 hours prior to addition of compounds, TMZ (Temozolomide) or DMSO (dimethylsulfoxide) vehicle. After 96 hours of treatment, the conversion of MTS ([3-(4,5-dimethylthiazol-2-yl)-5-(3-carboxymethoxyphenyl)-2-(4-sulfophenyl)-2H-tetrazolium, inner salt], Promega, Madison, Wis.) by metabolically active cells was determined through measuring the OD490 nm with a Spectramax microplate reader (Molecular Devices, San Diego, Calif.). To generate concentration-response curves, cells were treated in duplicate with a range of serial compound dilutions (final DMSO concentration was 0.5%) in the absence or presence of 100 μM TMZ chemoreagent. The percentage of viable cells per well was calculated by correction for background and normalizing against DMSO-treated cells. EC50 values for inhibition of cell viability were calculated using XLfit4 MicroSoft Excel curve-fitting software. Chemopotentiation factor PF50 was calculated as the ratio of EC50 values of cells co-treated without and with TMZ, respectively.
(§1) Here, pIC50=−log10 IC50, where IC50 is the molar concentration of the compound at 50% inhibition.

PARP = molecular target: T1, PARP (Homo sapiens, UniProt P09874); assay: PARP ELISA (ELISA-based colorimetric PARP/Apoptosis Assay kit), inhibition of PARP catalytic activity; assay type: biochemical; settings: pIC50 = -log10 IC50 (molar); 0.1 nM PARP stock, 100 μM NAD+ stock with activated DNA, 10 min catalysis
T1 construct: purchased Trevigen 4684-096-01 (enzyme); kit 4684-096-K HT
Protocol: Inhibition Constant (IC50) from PARP ELISA
Inhibition of PARP catalytic activity was determined by use of an ELISA-based colorimetric PARP/Apoptosis Assay kit (part number 4684-096-K HT, Trevigen). To each histone coated well in the 96-well plate supplied by the manufacturer (part number 4677-096-P) is added 39 μL of PARP buffer (part number 4671-096-02) and 1 μL of test compound dissolved in DMSO (diluted serially 3-fold 11 times). After mixing, 5 μL of 0.1 nM PARP (part number 4684-096-01) is added and the solution allowed to stand at ambient temperature for 10 minutes. PARP catalysis is initiated with the addition of 5 μL of 100 μM β-nicotinamide adenine dinucleotide (NAD+) (part number 4684-096-02) with activated DNA (part number 4671-096-06). After 10 minutes of catalysis the reaction is quenched by solvent aspiration followed by irrigation of the assay wells 4 times with phosphate buffered saline (PBS) containing 0.1% t-octylphenoxypolyethoxyethanol (Triton® X-100). Mouse Anti-poly ADP ribose (PAR) monoclonal antibody, goat antimouse immunoglobulin G (IgG)-horse radish peroxidase (HRP) conjugate and HRP substrate are added according to the manufacture's specifications to generate a colorimetric signal proportional to PARP catalytic activity. An IC50 for the test compound is calculated from the equation Absorbance=(Amax−background)/(1+([cmpd]/IC50)^n)+background fit to the 12 point test compound concentration gradient via nonlinear least squares.
as §1

T1 sequence (P09874 whole entry): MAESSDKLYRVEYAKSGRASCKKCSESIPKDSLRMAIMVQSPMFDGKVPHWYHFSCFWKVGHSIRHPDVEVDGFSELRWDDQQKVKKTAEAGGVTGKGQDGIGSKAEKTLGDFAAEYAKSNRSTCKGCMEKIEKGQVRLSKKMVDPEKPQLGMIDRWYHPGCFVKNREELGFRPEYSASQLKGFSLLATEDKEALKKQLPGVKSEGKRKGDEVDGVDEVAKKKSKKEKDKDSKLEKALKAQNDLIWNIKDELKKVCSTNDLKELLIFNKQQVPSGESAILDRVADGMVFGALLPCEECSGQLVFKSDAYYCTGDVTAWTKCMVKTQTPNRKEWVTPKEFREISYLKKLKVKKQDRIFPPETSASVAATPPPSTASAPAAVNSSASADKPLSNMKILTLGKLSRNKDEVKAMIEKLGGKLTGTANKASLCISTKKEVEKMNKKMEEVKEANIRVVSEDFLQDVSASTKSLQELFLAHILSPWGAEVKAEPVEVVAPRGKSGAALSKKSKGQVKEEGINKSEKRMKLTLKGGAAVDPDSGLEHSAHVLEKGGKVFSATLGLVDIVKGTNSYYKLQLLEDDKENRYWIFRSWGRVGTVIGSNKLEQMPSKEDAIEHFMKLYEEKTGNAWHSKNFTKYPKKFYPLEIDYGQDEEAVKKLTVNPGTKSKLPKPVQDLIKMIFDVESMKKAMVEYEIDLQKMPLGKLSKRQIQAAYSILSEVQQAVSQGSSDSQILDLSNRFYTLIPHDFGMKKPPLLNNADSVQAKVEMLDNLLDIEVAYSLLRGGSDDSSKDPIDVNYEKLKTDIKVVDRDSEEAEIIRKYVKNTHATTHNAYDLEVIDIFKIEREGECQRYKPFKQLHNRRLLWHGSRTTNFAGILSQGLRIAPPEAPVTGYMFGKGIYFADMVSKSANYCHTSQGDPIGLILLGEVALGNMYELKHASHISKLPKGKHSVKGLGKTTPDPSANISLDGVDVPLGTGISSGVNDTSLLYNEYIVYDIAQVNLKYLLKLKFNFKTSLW

SMILES	IC50 (PARP) [nM]	PF50 (Jurkat cell line)
CCNC(=O)c1ccc(N2CCN(Cc3cnc4c(c3)[nH]c(=O)n3cccc43)CC2)cc1 [Example 2, N-ethyl-4-(4-((6-oxo-5,6-dihydropyrido[2,3-e]pyrrolo[1,2-c]pyrimidin-3-yl)methyl)piperazin-1-yl)benzamide]	≤ 10	>1000
CNC(=O)c1ccc(N2CCN(Cc3cnc4c(c3)[nH]c(=O)n3cccc43)CC2)cc1 [Example 3, N-methyl-4-(4-((6-oxo-5,6-dihydropyrido[2,3-e]pyrrolo[1,2-c]pyrimidin-3-yl)methyl)piperazin-1-yl)benzamide]	≤ 10	>24000
O=C(NC1CC1)c1ccc(N2CCN(Cc3cnc4c(c3)[nH]c(=O)n3cccc43)CC2)cc1 [Example 4, N-cyclopropyl-4-(4-((6-oxo-5,6-dihydropyrido[2,3-e]pyrrolo[1,2-c]pyrimidin-3-yl)methyl)piperazin-1-yl)benzamide]	≤ 10	>1000
CCNC(=O)c1ccc(N2CCN(Cc3cnc4c(c3)[nH]c(=O)n3cccc43)CC2)c(Cl)c1 [Example 6, 3-chloro-N-ethyl-4-(4-((6-oxo-5,6-dihydropyrido[2,3-e]pyrrolo[1,2-c]pyrimidin-3-yl)methyl)piperazin-1-yl)benzamide]	≤ 10	>1000
CCNC(=O)c1ccc(N2CCN(Cc3cnc4c(c3)[nH]c(=O)n3cccc43)CC2)c(C)c1 [Example 8, N-ethyl-3-methyl-4-(4-((6-oxo-5,6-dihydropyrido[2,3-e]pyrrolo[1,2-c]pyrimidin-3-yl)methyl)piperazin-1-yl)benzamide]	≤ 10	>1600
CCNC(=O)c1ccc(N2CCN(Cc3cnc4c(c3)[nH]c(=O)n3cccc43)CC2)c(F)c1 [Example 10, N-ethyl-3-fluoro-4-(4-((6-oxo-5,6-dihydropyrido[2,3-e]pyrrolo[1,2-c]pyrimidin-3-yl)methyl)piperazin-1-yl)benzamide]	≤ 10	>60

Continued, in another order:

IC50 (PARP) [nM]	SMILES	PF50 (Jurkat cell line)
≤ 10	CNC(=O)c1ccc(N2CCN(Cc3cnc4c(c3)[nH]c(=O)n3cccc43)CC2)c(Cl)c1 [Example 5, 3-chloro-N-methyl-4-(4-((6-oxo-5,6-dihydropyrido[2,3-e]pyrrolo[1,2-c]pyrimidin-3-yl)methyl)piperazin-1-yl)benzamide]	>63
≤ 10	CNC(=O)c1ccc(N2CCN(Cc3cnc4c(c3)[nH]c(=O)n3cccc43)CC2)c(C)c1 [Example 7, N,3-dimethyl-4-(4-((6-oxo-5,6-dihydropyrido[2,3-e]pyrrolo[1,2-c]pyrimidin-3-yl)methyl)piperazin-1-yl)benzamide]	>900
≤ 10	CNC(=O)c1ccc(N2CCN(Cc3cnc4c(c3)[nH]c(=O)n3cccc43)CC2)c(F)c1 [Example 9, 3-fluoro-N-methyl-4-(4-((6-oxo-5,6-dihydropyrido[2,3-e]pyrrolo[1,2-c]pyrimidin-3-yl)methyl)piperazin-1-yl)benzamide]	>16
